The experiment has as its system FGF23. The experiment can be described thus: FGF23 ELISA in serum of wistar rats. Type of experiment: in vivo, rat. The conditions noted are these: single oral 50 mg/kg; 24 h post administration; p<0.01. Here is the method: Data are presented as means of n=6, ±SD.
Animals. Experiments were performed in female wistar rats furth WF/Ico
The application volumes were 5 ml/kg.
Blood samples were drawn sublingually at 24 h post-compound administration. Plasma, as well as serum samples were prepared from each blood sample.
Background: An ELISA detects its analyte on a solid surface through an enzyme-linked reagent.

Regarding `CCN(CC)CCCCNc1ncc2cc(-c3cc(OC)cc(OC)c3)c(NC(=O)NC(C)(C)C)nc2n1` [PD173074], the “serum levels of FGF23 vs vehicle-treated group” value is given as “statistically significant increased in serum levels of FGF23”.

These data come from patent US20150323548A1, “METHODS OF MONITORING THE MODULATION OF THE KINASE ACTIVITY OF FIBROBLAST GROWTH FACTOR RECEPTOR AND USES OF SAID METHODS” (Novartis AG, priority 2008, published 2015).
